In US10766869B2, “Triazoles for the treatment of demyelinating dieases” (Vertex Pharmaceuticals Incorporated, priority 2015, dated 2020):

Test system: primary rat mixed cortical cells
Assay: In vitro myelination assay (MBP positive myelin strands, fold myelin pixels above background)
Assay type: cell-based
Conditions: Rattus norvegicus, read-out: Fold myelin pixels above background relative to baseline of no added compound; for fold induction at 1 µM: 1.0 μM compound; for fold induction at 10 µM: 10.0 μM compound
Method in brief: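 Myelination read as total MBP-immunopositive strand pixels per well, imaged at 10× after fixation on day 14 and expressed relative to untreated wells, at 1.0 and 10.0 μM. Cells: dissociated postnatal day 1 rat cortex, cultured two weeks with compound, re-dosed at days 6 and 10.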

SMILES | fold induction at 1 µM | fold induction at 10 µM
Cc1cc(NC(=O)NC2CCC2)cc(Nc2ncn(-c3ccccc3)n2)c1 [Compound 910, 1-cyclobutyl-3-[3-methyl-5-[(1-phenyl-1,2,4-triazol-3-yl)amino]phenyl]urea] | 1 to 10 | 10 to 100
Cc1cc(Nc2ncn(-c3cc(F)cc(F)c3)n2)cc(N2CCCC(N3CCOCC3)C2)c1 (stereo not drawn) [Compound 911, 1-(3,5-difluorophenyl)-N-[3-methyl-5-(3-morpholino-1-piperidyl)phenyl]-1,2,4-triazol-3-amine] | 1 to 10 | 1 to 10
Cc1cc(Nc2ncn(-c3cc(F)cc(F)c3)n2)cc(NC2CCCC2N2CCOCC2)c1 (stereo not drawn) [Compound 912, N3-[1-(3,5-difluorophenyl)-1,2,4-triazol-3-yl]-5-methyl-N1-(2-morpholinocyclopentyl)benzene-1,3-diamine] | 1 to 10 | 1 to 10
Cc1cc(Nc2ncn(-c3cccc(F)c3)n2)c(F)c(OC2CCOC2)c1 (stereo not drawn) [Compound 913, N-(2-fluoro-5-methyl-3-tetrahydrofuran-3-yloxy-phenyl)-1-(3-fluorophenyl)-1,2,4-triazol-3-amine] | 10 to 100 | 10 to 100
Cc1cc(Nc2ncn(-c3cc(F)cc(F)c3)n2)cc(N2CCN(CC3CCCO3)CC2)c1 (stereo not drawn) [Compound 914, 1-(3,5-difluorophenyl)-N-[3-methyl-5-[4-(tetrahydrofuran-2-ylmethyl)piperazin-1-yl]phenyl]-1,2,4-triazol-3-amine] | 10 to 100 | ≤ 1
Cc1cc(Nc2ncn(-c3cc(F)cc(F)c3)n2)c(F)c(NC2COC2)c1 [Compound 915, N3-[1-(3,5-difluorophenyl)-1,2,4-triazol-3-yl]-2-fluoro-5-methyl-N1-(oxetan-3-yl)benzene-1,3-diamine] | 1 to 10 | ≤ 1
[2H]C1([2H])NC([2H])([2H])C([2H])([2H])N(c2cc(C)cc(Nc3ncn(-c4cc(F)cc(F)c4)n3)c2)C1([2H])[2H] [Compound 916, 1-(3,5-difluorophenyl)-N-[3-methyl-5-(2,2,3,3,5,5,6,6-octadeuteriopiperazin-1-yl)phenyl]-1,2,4-triazol-3-amine] | 10 to 100 | ≤ 1
CCC1CN(CCNc2cc(C)cc(Nc3ncn(-c4cc(F)cc(F)c4)n3)c2)CCO1 (stereo not drawn) [Compound 917, N3-[1-(3,5-difluorophenyl)-1,2,4-triazol-3-yl]-N1-[2-(2-ethylmorpholin-4-yl)ethyl]-5-methyl-benzene-1,3-diamine] | 10 to 100 | ≤ 1
Cc1cc(Nc2ncn(-c3cc(F)cc(F)c3)n2)cc(NC2CCOC(C3CC3)C2)c1 (stereo not drawn) [Compound 918, N1-(2-cyclopropyltetrahydropyran-4-yl)-N3-[1-(3,5-difluorophenyl)-1,2,4-triazol-3-yl]-5-methyl-benzene-1,3-diamine] | 1 to 10 | ≤ 1
Cc1cc(Nc2ncn(-c3cc(F)cc(F)c3)n2)cc(N2CC(N3CCOCC3)CC2C)c1 (stereo not drawn) [Compound 920, 1-(3,5-difluorophenyl)-N-[3-methyl-5-(2-methyl-4-morpholino-pyrrolidin-1-yl)phenyl]-1,2,4-triazol-3-amine] | 10 to 100 | ≤ 1
Cc1cc(Nc2ncn(-c3cc(F)cc(F)c3)n2)cc(N2CC(CC#N)C2)c1 [Compound 921, 2-[1-[3-[[1-(3,5-difluorophenyl)-1,2,4-triazol-3-yl]amino]-5-methyl-phenyl]azetidin-3-yl]acetonitrile] | 10 to 100 | 1 to 10
[2H]C1([2H])N(CCO)C([2H])([2H])C([2H])([2H])N(c2cc(C)cc(Nc3ncn(-c4cc(F)cc(F)c4)n3)c2)C1([2H])[2H] [Compound 922, 2-[2,2,3,3,5,5,6,6-octadeuterio-4-[3-[[1-(3,5-difluorophenyl)-1,2,4-triazol-3-yl]amino]-5-methyl-phenyl]piperazin-1-yl]ethanol] | 1 to 10 | ≤ 1
CC(=O)OCC(COC(C)=O)N1CCN(c2cc(C)cc(Nc3ncn(-c4cc(F)cc(F)c4)n3)c2F)CC1 [Compound 923, [3-acetoxy-2-[4-[3-[[1-(3,5-difluorophenyl)-1,2,4-triazol-3-yl]amino]-2-fluoro-5-methyl-phenyl]piperazin-1-yl]propyl] acetate] | 10 to 100 | 1 to 10
Cc1cc(Nc2ncn(-c3cc(F)cc(F)c3)n2)cc(N2CCN(C3CCN(C)CC3)C(C)C2)c1 (stereo not drawn) [Compound 925, 1-(3,5-difluorophenyl)-N-[3-methyl-5-[3-methyl-4-(1-methyl-4-piperidyl)piperazin-1-yl]phenyl]-1,2,4-triazol-3-amine] | 1 to 10 | ≤ 1
[2H]C1([2H])N(c2cc(C)cc(Nc3ncn(-c4cc(F)cc(F)c4)n3)c2)C([2H])([2H])C([2H])([2H])N(C2CCCOC2)C1([2H])[2H] (stereo not drawn) [Compound 926, 1-(3,5-difluorophenyl)-N-[3-methyl-5-(2,2,3,3,5,5,6,6-octadeuterio-4-tetrahydropyran-3-yl-piperazin-1-yl)phenyl]-1,2,4-triazol-3-amine] | 10 to 100 | 1 to 10
Cc1cc(Nc2ncn(-c3cc(F)cc(F)c3)n2)cc(N2CCOC(COC(C)C)C2)c1 (stereo not drawn) [Compound 927, 1-(3,5-difluorophenyl)-N-[3-[2-(isopropoxymethyl)morpholin-4-yl]-5-methyl-phenyl]-1,2,4-triazol-3-amine] | 10 to 100 | 1 to 10
Cc1cc(NCCN2CCOC(C)C2)cc(Nc2ncn(-c3cc(F)cc(F)c3)n2)c1 (stereo not drawn) [Compound 928, N1-[1-(3,5-difluorophenyl)-1,2,4-triazol-3-yl]-5-methyl-N3-[2-(2-methylmorpholin-4-yl)ethyl]benzene-1,3-diamine] | 10 to 100 | ≤ 1
[2H]C(C)(C)N1CCN(c2cc(C)cc(Nc3ncn(-c4ccccc4)n3)c2)CC1 [Compound 929, N-[3-[4-(1-deuterio-1-methyl-ethyl)piperazin-1-yl]-5-methyl-phenyl]-1-phenyl-1,2,4-triazol-3-amine] | 10 to 100 | ≤ 1
COCCN1CCC(Nc2cc(C)cc(Nc3ncn(-c4cc(F)cc(F)c4)n3)c2)CC1 [Compound 930, N3-[1-(3,5-difluorophenyl)-1,2,4-triazol-3-yl]-N1-[1-(2-methoxyethyl)-4-piperidyl]-5-methyl-benzene-1,3-diamine] | 10 to 100 | ≤ 1
Cc1cc(Nc2ncn(-c3cc(F)cc(F)c3)n2)cc(NC(C)CN2CCOCC2)c1 (stereo not drawn) [Compound 931, N3-[1-(3,5-difluorophenyl)-1,2,4-triazol-3-yl]-5-methyl-N1-(1-methyl-2-morpholino-ethyl)benzene-1,3-diamine] | 10 to 100 | ≤ 1
Cc1cc(NCC2COCCO2)cc(Nc2ncn(-c3cc(F)cc(F)c3)n2)c1 (stereo not drawn) [Compound 932, N1-[1-(3,5-difluorophenyl)-1,2,4-triazol-3-yl]-N3-(1,4-dioxan-2-ylmethyl)-5-methyl-benzene-1,3-diamine] | 1 to 10 | ≤ 1
